Test results published in patent publication US12052991B2, “Substituted pyridinyloxybenzenes and salts thereof and use thereof as herbicidal agents” (Bayer Aktiengesellschaft, priority 2018, dated 2024).

Tests used:
Format in all cases: in vivo
[1] = test system: Echinochloa crus-galli (ECHCG); assay: Herbicidal post-emergence action (Table B1); conditions: rated visually after about 3 weeks, 100% = plants have died, 0% = like control plants
Summary of the method: (§1)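 Post-emergence spray, one-leaf stage (2–3 wk after sowing), sandy loam, greenhouse. WP/EC in water + 0.5% additive, 600 L/ha, 1280 or 320 g/ha. Visual % activity vs untreated after ~3 wk (0% = like control, 100% = plants dead).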

[2] = test system: Lolium rigidum (LOLRI); assay: Herbicidal post-emergence action (Table B2); conditions: 1280 g/ha; rated visually after about 3 weeks; 100% = plants have died, 0% = like control plants
Method: (§2) Seeds of mono- and dicotyledonous weed plants were placed in plastic pots in sandy loam soil (doubly sown with in each case one species of mono- or dicotyledonous weed plants per pot), covered with soil and cultivated in a greenhouse under controlled growth conditions. 2 to 3 weeks after sowing, the test plants were treated at the one-leaf stage. The compounds of the invention, formulated in the form of wettable powders (WP) or as emulsion concentrates (EC), were applied onto the green parts of the plants as aqueous suspension or emulsion with addition of 0.5% additive at a water application rate of 600 liters per hectare (converted). After the test plants had been kept in the greenhouse under optimum growth conditions for about 3 weeks, the activity of the preparations was rated visually in comparison to untreated controls. For example, 100% activity=the plants have died, 0% activity=like control plants. Tables B1 to B12 below show the effects of selected compounds of the general formula (I) according to Table 1 on various harmful plants and an application rate corresponding to 1280 or 320 g/ha, which were obtained by the experimental procedure mentioned above.

[3] = test system: Poa annua (POAAN); assay: Herbicidal post-emergence action (Table B3); conditions: rated visually after about 3 weeks, 100% = plants have died, 0% = like control plants
Summary of the method: as §1

[4] = test system: Setaria viridis (SETVI); assay: Herbicidal post-emergence action (Table B4); conditions: 1280 g/ha; rated visually after about 3 weeks; 100% = plants have died, 0% = like control plants
Method: as §2

[5] = test system: Abutilon theophrasti (ABUTH); assay: Herbicidal post-emergence action (Table B5); conditions: rated visually after about 3 weeks, 100% = plants have died, 0% = like control plants
Summary of the method: as §1

[6] = test system: Amaranthus retroflexus (AMARE); assay: Herbicidal post-emergence action (Table B6); conditions: visual rating about 3 weeks after treatment, 100% = plants have died, 0% = like control plants
Summary of the method: as §1

[7] = test system: Stellaria media (STEME); assay: Herbicidal post-emergence action (Table B8); conditions: visual rating about 3 weeks after treatment, 100% = plants have died, 0% = like control plants
Summary of the method: as §1

[8] = test system: Echinochloa crus-galli (ECHCG); assay: Herbicidal pre-emergence action, test C (Table C1); conditions: visual scoring after about 3 weeks, 100% = plants have died, 0% = like control plants
Summary of the method: (§3)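 Visual scoring after about 3 weeks in the greenhouse gave % activity relative to untreated controls, 100% meaning plants died. Compounds, as WP or EC with 0.5% additive, had been applied to covering soil at 1280 or 320 g/ha in 600 L/ha water.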

[9] = test system: Lolium rigidum (LOLRI); assay: Herbicidal pre-emergence action, test C (Table C2); conditions: dosage 1280 g/ha; visual scoring after about 3 weeks; 100% = plants have died, 0% = like control plants
From the text: Seeds of mono- and dicotyledonous weed plants were placed in plastic pots in sandy loam soil (doubly sown with one species each of mono- or dicotyledonous weed plants per pot) and covered with soil. The compounds of the invention, formulated in the form of wettable powders (WP) or as emulsion concentrates (EC), were then applied onto the surface of the covering soil as aqueous suspension or emulsion with addition of 0.5% additive at a water application rate of 600 liters per hectare (converted). After the treatment, the pots were placed in a greenhouse and kept under good growth conditions for the test plants. After about 3 weeks, the effect of the preparations was scored visually in comparison with untreated controls as percentages. For example, 100% activity=the plants have died, 0% activity=like control plants. Tables C1 to C12 below show the effects of selected compounds of the general formula (I) according to Table 1 on various harmful plants and an application rate corresponding to 1280 or 320 g/ha, which were obtained by the experimental procedure mentioned above.

[10] = test system: Poa annua (POAAN); assay: Herbicidal pre-emergence action, test C (Table C3); conditions: visual scoring after about 3 weeks, 100% = plants have died, 0% = like control plants
Summary of the method: as §3

[11] = test system: Setaria viridis (SETVI); assay: Herbicidal pre-emergence action, test C (Table C4); conditions: visual scoring after about 3 weeks, 100% = plants have died, 0% = like control plants
Summary of the method: as §3

[12] = test system: Abutilon theophrasti (ABUTH); assay: Herbicidal pre-emergence action, test C (Table C5); conditions: visual scoring after about 3 weeks, 100% = plants have died, 0% = like control plants
Summary of the method: as §3

[13] = test system: Amaranthus retroflexus (AMARE); assay: Herbicidal pre-emergence action, test C (Table C6); conditions: dosage 1280 g/ha; visual scoring after about 3 weeks; 100% = plants have died, 0% = like control plants
Summary of the method: as §3

[14] = test system: Matricaria inodora (MATIN); assay: Herbicidal pre-emergence action, test C (Table C7); conditions: visual scoring after about 3 weeks, 100% = plants have died, 0% = like control plants
Summary of the method: as §3

[15] = test system: Stellaria media (STEME); assay: Herbicidal pre-emergence action, test C (Table C8); conditions: visual scoring after about 3 weeks, 100% = plants have died, 0% = like control plants
Summary of the method: as §3

[16] = test system: harmful plants ABUTH, AMARE, ECHCG, LOLRI, MATIN, POAAN, SETVI, STEME, ALOMY, DIGSA, KCHSC and VERPE; assay: Herbicidal post-emergence action, summary of Tables B1-B12; conditions: application rate of 1280 or 320 g of active ingredient per hectare; summary in words
Summary of the method: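 Activity scored by eye roughly 3 weeks post-treatment against untreated plants, from 0% (no effect) to 100% (plants dead). Application rates were 1280 or 320 g/ha, as aqueous WP/EC spray plus 0.5% additive at 600 L/ha, onto one-leaf-stage weeds grown 2–3 weeks in sandy loam.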

[17] = test system: harmful plants ABUTH, AMARE, ECHCG, LOLRI, MATIN, POAAN, SETVI, STEME, ALOMY, DIGSA, KCHSC and VERPE; assay: Herbicidal pre-emergence action (test C), summary of Tables C1-C12; conditions: application rate of 1280 or 320 g of active ingredient per hectare; summary in words
Summary of the method: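 Visual % damage versus untreated plants (0% = like control, 100% = died) was scored after about 3 weeks in the greenhouse. Before emergence, seeds sown in sandy loam got a soil-surface spray of compound as WP or EC plus 0.5% additive, using 600 L/ha water at rates of 1280 or 320 g/ha.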

Fc1cccnc1Oc1cccc(F)c1-c1cc(C(F)F)no1 [Example 1-23]
Post-emergence action against Echinochloa crus-galli (ECHCG) ([1]; 320 g/ha): 100%
Post-emergence action against Echinochloa crus-galli (ECHCG) ([1]; 1280 g/ha): 100%
Post-emergence action against Lolium rigidum (LOLRI) [2]: 100%
Post-emergence action against Poa annua (POAAN) ([3]; 320 g/ha): 100%
Post-emergence action against Poa annua (POAAN) ([3]; 1280 g/ha): 100%
Post-emergence action against Setaria viridis (SETVI) [4]: 90%
Post-emergence action against Abutilon theophrasti (ABUTH) ([5]; 320 g/ha): 100%
Post-emergence action against Abutilon theophrasti (ABUTH) ([5]; 1280 g/ha): 100%
Post-emergence action against Amaranthus retroflexus (AMARE) ([6]; dosage 320 g/ha): 100%
Post-emergence action against Amaranthus retroflexus (AMARE) ([6]; dosage 1280 g/ha): 100%
Post-emergence action against Stellaria media (STEME) ([7]; dosage 320 g/ha): 100%
Post-emergence action against Stellaria media (STEME) ([7]; dosage 1280 g/ha): 100%
Pre-emergence action against Echinochloa crus-galli (ECHCG) ([8]; dosage 320 g/ha): 100%
Pre-emergence action against Echinochloa crus-galli (ECHCG) ([8]; dosage 1280 g/ha): 100%
Pre-emergence action against Lolium rigidum (LOLRI) [9]: 100%
Pre-emergence action against Poa annua (POAAN) ([10]; dosage 320 g/ha): 90%
Pre-emergence action against Poa annua (POAAN) ([10]; dosage 1280 g/ha): 100%
Pre-emergence action against Setaria viridis (SETVI) ([11]; dosage 320 g/ha): 100%
Pre-emergence action against Setaria viridis (SETVI) ([11]; dosage 1280 g/ha): 100%
Pre-emergence action against Abutilon theophrasti (ABUTH) ([12]; dosage 320 g/ha): 100%
Pre-emergence action against Abutilon theophrasti (ABUTH) ([12]; dosage 1280 g/ha): 100%
Pre-emergence action against Amaranthus retroflexus (AMARE) [13]: 100%
Pre-emergence action against Matricaria inodora (MATIN) ([14]; dosage 320 g/ha): 90%
Pre-emergence action against Matricaria inodora (MATIN) ([14]; dosage 1280 g/ha): 100%
Pre-emergence action against Stellaria media (STEME) ([15]; dosage 320 g/ha): 100%
Pre-emergence action against Stellaria media (STEME) ([15]; dosage 1280 g/ha): 100%
herbicidal activity against the harmful plants of Tables B1-B12 in post-emergence treatment [16]: very good herbicidal activity
herbicidal activity against the harmful plants of Tables C1-C12 in pre-emergence treatment [17]: very good herbicidal activity
